Measured values reported in US20150011566A1, “N-PHENYLPIPERAZINE DERIVATIVES THAT ARE ANTAGONISTS OF A1A, A1D ADRENOCEPTORS AND 5-HT1A RECEPTORS FOR THE TREATMENT OF BENIGN PROSTATE HYPERPLASIA, PHARMACEUTICAL COMPOSITIONS CONTAINING THE SAME” (UNIVERSIDADE FEDERAL DO RIO DE JANEIRO-UFRJ, priority 2012, published 2015).
Counter-ions that a name gives are not always drawn. Marks after values point to notes of the source that are not given here.

What was measured:
prostate cells = details: DIZEYI et al. Prostate 59 (3): 328-336, 2004; cited from earlier work
5-HT1A receptors [1] = molecular target: T1, 5-HT1A receptors (Rattus norvegicus, UniProt P19327); experiment: Binding of [3H]p-MPPF with GTP to 5-HT1A receptors; intrinsic activity (Ki low/Ki high); details: Table 13; from Ki low/Ki high
T1 construct: Intrinsic Activity at Native 5-HT1A Receptors; from tissue; host or cells: rat hippocampus membranes
T1 sequence (P19327 1-422): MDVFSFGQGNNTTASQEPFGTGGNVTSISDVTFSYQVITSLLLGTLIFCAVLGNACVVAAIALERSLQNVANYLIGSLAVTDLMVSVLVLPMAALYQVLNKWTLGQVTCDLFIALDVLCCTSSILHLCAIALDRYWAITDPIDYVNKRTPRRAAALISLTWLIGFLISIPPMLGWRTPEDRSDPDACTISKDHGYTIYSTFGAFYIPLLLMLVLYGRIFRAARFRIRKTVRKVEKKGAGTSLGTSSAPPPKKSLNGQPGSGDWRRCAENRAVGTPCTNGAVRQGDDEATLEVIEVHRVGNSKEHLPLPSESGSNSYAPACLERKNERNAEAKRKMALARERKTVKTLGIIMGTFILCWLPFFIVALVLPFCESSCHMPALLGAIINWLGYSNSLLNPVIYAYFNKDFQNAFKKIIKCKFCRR
Method: Membrane preparations of rat hippocampus according to previously described by HALL et al (1985) and PEROUTKA (1986) were performed. The homogenization and centrifugation steps were performed identically to that described above for receptors α2A and 5-HT2A receptors.
The binding assays for the 5-HT1A receptors were performed as described previously in the literature and previously standardized in the laboratory through saturation experiments. […] (solvent for dilution of LDT's) for the determination of total binding, or 50 μL non-radioative serotonin at 10 μM to determine the non-specific binding (final volume of 500 μL). Assays were performed in triplicate. […] Assays were performed in triplicate.
After the incubation period, the reaction was stopped by adding 4 ml of ice-cold solution containing 5 mM Tris (pH 7.4), followed by vacuum filtration on glass fiber filter (GMF 3, Filtrak®) previously soaked with solution 0.5% polyethylenoimine. The filters were washed three times with 4 mL of ice-cold solution containing 5 mM Tris (pH 7.4) under vacuum to remove all free radioligand. Then the filters were dried and placed in vials containing 5 ml scintillation fluid (composition: 4% PPO, 0.1% POPOP w/p in toluene). The radioactivity retained on the filters was then determined in a liquid scintillation counter (Packard Tri-Carb 1600 TR). […] For these receptors were also determined the […] and Ki parameters.
The GTP presence displaces the GPCR to a state of low affinity (Lahti et al, 1992). The intrinsic activity of a substance can be estimated using GPCR agonist or antagonist radioligand appropriate to define the affinity of the substance in the state of high and low affinity receptor, respectively.

5-HT1A receptors [2] = molecular target: T2, 5-HT1A receptors (Homo sapiens, UniProt P08908); experiment: Cell proliferation in vitro, DU-145 cells stimulated with 5-HT (MTT); assay type: cell-based; details: 48 h
T2 construct: endogenous in cells; host or cells: DU-145
T2 sequence (P08908 1-422): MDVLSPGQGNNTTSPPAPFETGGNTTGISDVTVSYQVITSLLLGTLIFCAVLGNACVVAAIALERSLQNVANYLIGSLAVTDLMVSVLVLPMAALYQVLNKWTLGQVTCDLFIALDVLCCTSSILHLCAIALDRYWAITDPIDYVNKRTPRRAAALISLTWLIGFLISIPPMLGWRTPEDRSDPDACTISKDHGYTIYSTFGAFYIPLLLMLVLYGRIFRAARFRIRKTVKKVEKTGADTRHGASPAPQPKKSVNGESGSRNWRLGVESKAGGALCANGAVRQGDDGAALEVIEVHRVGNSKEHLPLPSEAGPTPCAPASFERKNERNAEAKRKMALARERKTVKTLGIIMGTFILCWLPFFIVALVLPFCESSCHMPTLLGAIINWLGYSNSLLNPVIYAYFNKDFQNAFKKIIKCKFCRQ
Method: (§1) Human prostate cancer cells (DU-145) were cultured in medium (RPMI 1640) until confluence. Then the cells were dissociated, plated (5×10^3 cells/well) and maintained in medium free of fetal bovine serum for 24 hours. […] Cell proliferation was assessed by using the MTT technique (MOSMANN, T. Immunol Methods. 16; 65 (1-2):55-63, 1983).

α2A receptors = molecular target: T3, α2A receptors (Rattus norvegicus, UniProt P22909); experiment: Binding of [3H]RX821002 to α2A receptors (rat cortex membranes); details: saturation assay
T3 construct: Membrane preparations of rat cortex as described previously in the literature were performed; from tissue; host or cells: rat cortex membranes
T3 sequence (P22909 1-465): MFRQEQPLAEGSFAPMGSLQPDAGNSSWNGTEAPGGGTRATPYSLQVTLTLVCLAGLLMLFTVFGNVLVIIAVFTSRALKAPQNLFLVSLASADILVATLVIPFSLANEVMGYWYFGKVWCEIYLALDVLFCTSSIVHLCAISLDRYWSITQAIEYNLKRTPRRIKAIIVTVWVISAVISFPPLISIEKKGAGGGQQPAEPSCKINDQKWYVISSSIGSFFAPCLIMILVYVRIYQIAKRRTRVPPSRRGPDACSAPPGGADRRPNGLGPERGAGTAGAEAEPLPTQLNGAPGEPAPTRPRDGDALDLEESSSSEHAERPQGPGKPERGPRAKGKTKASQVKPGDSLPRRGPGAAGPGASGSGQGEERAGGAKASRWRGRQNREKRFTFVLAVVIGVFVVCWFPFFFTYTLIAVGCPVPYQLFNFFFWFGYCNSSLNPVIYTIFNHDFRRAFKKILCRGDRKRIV

α1D receptors = molecular target: T4, α1D receptors (Homo sapiens, UniProt P25100); experiment: Cell proliferation in vitro, DU-145 cells stimulated with phenylephrine (MTT); assay type: cell-based; details: 48 h
T4 construct: endogenous in cells; host or cells: DU-145
T4 sequence (P25100 1-572): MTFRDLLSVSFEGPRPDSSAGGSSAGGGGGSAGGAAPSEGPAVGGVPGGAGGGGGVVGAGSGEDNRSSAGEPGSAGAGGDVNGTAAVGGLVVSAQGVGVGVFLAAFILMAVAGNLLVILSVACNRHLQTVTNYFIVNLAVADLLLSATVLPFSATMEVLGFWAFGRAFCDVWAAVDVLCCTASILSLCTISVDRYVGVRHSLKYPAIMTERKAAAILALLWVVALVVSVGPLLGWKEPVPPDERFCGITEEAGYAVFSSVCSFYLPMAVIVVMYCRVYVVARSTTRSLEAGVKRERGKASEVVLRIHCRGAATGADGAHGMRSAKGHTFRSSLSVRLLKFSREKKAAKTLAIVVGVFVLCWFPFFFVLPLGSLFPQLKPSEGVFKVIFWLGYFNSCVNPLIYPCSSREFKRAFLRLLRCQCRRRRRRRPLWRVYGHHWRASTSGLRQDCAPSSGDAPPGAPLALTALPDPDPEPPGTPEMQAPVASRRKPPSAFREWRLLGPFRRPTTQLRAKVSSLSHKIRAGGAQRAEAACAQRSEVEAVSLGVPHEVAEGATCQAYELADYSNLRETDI
Method: as §1

α1D adrenoceptors = molecular target: T5, α1D adrenoceptors (Rattus norvegicus, UniProt P23944); experiment: Phenylephrine-induced contraction inhibition in rat aorta (isometric contraction, Schild KB); assay type: cell-based; details: ratio of EC50 in presence and absence of test substance, 10 nM
T5 construct: the rat thoracic aorta corresponds to a tissue expressing mainly α1D-adrenoceptors; from tissue; host or cells: rat thoracic aorta rings
T5 sequence (P23944 1-561): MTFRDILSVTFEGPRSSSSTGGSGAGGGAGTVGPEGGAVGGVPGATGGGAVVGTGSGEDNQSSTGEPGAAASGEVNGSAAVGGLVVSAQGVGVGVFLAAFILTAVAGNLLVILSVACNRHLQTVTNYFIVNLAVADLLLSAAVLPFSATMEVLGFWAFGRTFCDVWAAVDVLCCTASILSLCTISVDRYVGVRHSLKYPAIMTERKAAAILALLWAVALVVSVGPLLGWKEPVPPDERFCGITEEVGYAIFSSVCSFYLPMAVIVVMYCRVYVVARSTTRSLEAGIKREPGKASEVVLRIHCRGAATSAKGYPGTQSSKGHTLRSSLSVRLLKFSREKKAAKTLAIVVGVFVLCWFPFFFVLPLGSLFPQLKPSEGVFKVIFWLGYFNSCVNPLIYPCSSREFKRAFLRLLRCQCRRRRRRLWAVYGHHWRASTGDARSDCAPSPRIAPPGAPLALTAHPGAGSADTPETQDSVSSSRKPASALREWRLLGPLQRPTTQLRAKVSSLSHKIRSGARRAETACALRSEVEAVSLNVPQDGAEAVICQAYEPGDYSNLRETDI
Method: Isometric contraction assays were performed using Male Wistar rats, aged 2.5-3 months euthanized as described above. The thoracic aorta (tissue enriched in functional α1D adrenergic receptors) was removed, free from adjacent connective and adipose tissues cut in 3 mm segments. […] The aort segments were then subjected to a preload of 20 mN per 60 minutes. After recovery of tissues maintained for 1 hour at rest, it was performed a contraction induced by phenylephrine (PE) 1 μM (α1 adrenergic receptors selective agonist). In this plateau contraction, in order to promote endothelium-dependent relaxation resulting from the activation of the enzyme endothelial nitric oxide synthase (eNOS) and subsequent release of nitric oxide (NO), acetylcholine 1 μM was added. Rings that relaxed at least 80% were considered to have intact endothelium, were used.
Then the preparation was washed and allowed to stand for 1 hour in order to recover the tissue. Then it was performed cumulative curves to phenylephrine (10^−9 to 10^−5 M) in the presence of propranolol 1 μM (β-adrenoceptor blocker receptors) before and after incubation for 1 hour of the LDT's at 10 or 50 nM. In parallel, a temporal control was performed to rule out any artifacts on the measured contraction, where was added only the vehicle (ultrapure water Milli Q®) instead of the substance to be tested. Strictly following the same protocol as the other tanks wherein it was added the LDT's.
The data were scanned in MacLab 8S system connected to the isometric tension transducer Grass FT-03, which recorded the voltage variation in milinewtons (mN) generated throughout the analysis. The digitized data were then analyzed by Chart 3.4/s software program (MacLab, Inc., USA). In the pharmacological screening process, the initial concentration of the used LDT's was 50 nM, which is considered as cut concentration, i.e., substances that have no effect at this concentration would not investigated in this test. […] The ratio of the EC50 value in these two conditions (with and without LDT) matches the third parameter, called “concentration ratio” (or RC).
log(CR−1)=log [B]−log KB (Equation 1)
Where CR=concentration ratio (EC′50/EC50); [B]=‘B’ antagonist concentration; KB=equilibrium dissociation constant of the antagonist ‘B’.
With this in view, the functional tests of contraction in isolated organ model were performed using these tissues. […] Similarly, targeting to rule out any artifacts on the measured contraction, a time control was performed where only the vehicle was added (ultrapure Mili Q® water) in place of the substance to be tested, strictly following the same protocol as the other vats were added to the LDT's (FIG. 1).

## CCOc1ccccc1OCCN[C@H](C)Cc1ccc(OC)c(S(N)(=O)=O)c1 [tamsulosin]
Prostate cells
  inhibition of cell proliferation: does not inhibit cell proliferation

## Cl.NCCc1c[nH]c2ccc(O)cc12 [5-HT, 5-hydroxytryptamine hydrochloride]
5-HT1A receptors [1]
  pharmacological classification: full antagonist
5-HT1A receptors [2]; DU-145, stimulus alone, 5-HT 1 μM
  Proliferation percentage in relation to basel (100%), 5-HT1A: 137.1 ± 5.2%

## COC1(C2=NCCN2)COc2ccccc2O1 (centres unmarked) [[3H] RX821002]
α2A receptors
  Kd: 2.05 ± 0.28 nM

## CNC[C@H](O)c1cccc(O)c1 [Phenylephrine, (R)-(−)-phenylephrine hydrochloride, reference compound]
α1D receptors; DU-145, stimulus alone, phenylephrine 3 μM
  Proliferation percentage in relation to basel (100%), α1D: 138.8 ± 2.6%

## COc1ccccc1N1CCN(CCN(C(=O)c2ccc(F)cc2)c2ccccn2)CC1 [p-MPPF, reference compound]
5-HT1A receptors [2]; DU-145, 5-HT 1 μM + test substance 50 nM
  Proliferation percentage in relation to basel (100%) in the presence of LDT's, 5HT1A: 88.9 ± 11.5^b %

## COc1ccccc1N1CCN(CCN2C(=O)CC3(CCCC3)CC2=O)CC1 [BMY7378, reference compound]
α1D adrenoceptors
  CR ± EPM: 4.4 ± 0.8
α1D receptors; DU-145, phenylephrine 3 μM + test substance 50 nM
  Proliferation percentage in relation to basel (100%) in the presence of LDT's, α1D: 90.98 ± 11.7^a %
